The results in this text go back to US8470786B2, “Pyrroloquinolinyl-pyrrolidine-2,5-dione compositions and methods for preparing and using same” (ArQule, Inc., priority 2010, dated 2013).

One data set has as its system HT29. As to the kind of experiment: Cell proliferation analysis (MTS assay). It counts as cell-based. The note with it: Homo sapiens, HT-29, HT29 cells, treated for 72 hours, read-out: Antiproliferative activity (HT29 MTS GI50). On the procedure:
Cell survival was determined by the MTS assay. Briefly, cells were plated in a 96-well plate at 2,000-10,000 cells per well, cultured for 24 hours in complete growth medium, and then treated with various drugs and drug combinations for 72 hours. MTS was added and incubated for 4 hour, followed by assessment of cell viability using the microplate reader at 570 nm. Data were normalized to untreated controls and analyzed.

The target in the next data set is c-Met (Homo sapiens, UniProt P08581). Put plainly: c-Met autophosphorylation inhibition assay (biochemical). The note with it: method per J. Biol. Chem. 286(23), 20666-20676. Here is the method:
c-Met Autophosphorylation Inhibition assay was carried out according to Journal of Biological Chemistry 286(23), 20666-20676 (Jun. 10, 2010).

Sequence of c-Met (P08581 25-1390): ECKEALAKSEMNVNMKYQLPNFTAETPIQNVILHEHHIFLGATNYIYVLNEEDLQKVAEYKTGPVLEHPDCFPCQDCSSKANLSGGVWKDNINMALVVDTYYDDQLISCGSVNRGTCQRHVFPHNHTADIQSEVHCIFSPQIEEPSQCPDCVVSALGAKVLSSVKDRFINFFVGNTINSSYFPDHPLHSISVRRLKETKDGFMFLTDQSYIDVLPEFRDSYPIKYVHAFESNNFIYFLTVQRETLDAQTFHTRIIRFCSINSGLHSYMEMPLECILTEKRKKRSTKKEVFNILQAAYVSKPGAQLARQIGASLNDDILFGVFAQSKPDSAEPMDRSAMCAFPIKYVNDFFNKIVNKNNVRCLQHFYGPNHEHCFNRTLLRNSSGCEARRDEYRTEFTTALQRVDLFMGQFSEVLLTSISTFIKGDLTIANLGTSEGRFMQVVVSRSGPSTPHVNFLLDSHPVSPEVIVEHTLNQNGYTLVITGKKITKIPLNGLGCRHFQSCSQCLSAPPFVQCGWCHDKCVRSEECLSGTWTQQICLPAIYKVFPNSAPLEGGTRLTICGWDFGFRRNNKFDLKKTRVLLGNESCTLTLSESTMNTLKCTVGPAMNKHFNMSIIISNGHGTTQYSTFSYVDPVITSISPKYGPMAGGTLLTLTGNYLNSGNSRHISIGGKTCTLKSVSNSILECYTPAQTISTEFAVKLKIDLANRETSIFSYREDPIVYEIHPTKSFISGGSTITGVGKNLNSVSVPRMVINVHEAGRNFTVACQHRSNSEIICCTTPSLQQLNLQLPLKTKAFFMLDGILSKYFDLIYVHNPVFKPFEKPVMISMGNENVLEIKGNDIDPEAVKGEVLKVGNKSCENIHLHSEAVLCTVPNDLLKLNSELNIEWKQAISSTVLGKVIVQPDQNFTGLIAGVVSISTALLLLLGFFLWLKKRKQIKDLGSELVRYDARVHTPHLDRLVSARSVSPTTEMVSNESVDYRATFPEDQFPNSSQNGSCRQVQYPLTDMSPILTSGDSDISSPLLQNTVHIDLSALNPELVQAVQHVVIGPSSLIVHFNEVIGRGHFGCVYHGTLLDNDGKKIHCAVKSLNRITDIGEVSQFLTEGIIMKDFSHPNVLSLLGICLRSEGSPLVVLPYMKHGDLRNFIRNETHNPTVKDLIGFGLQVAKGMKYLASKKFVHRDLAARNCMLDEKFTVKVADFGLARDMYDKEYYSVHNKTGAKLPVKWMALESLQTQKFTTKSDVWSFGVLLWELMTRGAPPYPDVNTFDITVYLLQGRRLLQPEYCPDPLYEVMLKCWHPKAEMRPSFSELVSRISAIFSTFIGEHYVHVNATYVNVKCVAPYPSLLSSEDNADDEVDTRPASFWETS

`O=C1NC(=O)[C@@H](c2cn3c4c(cccc24)[C@@H](O)CC3)[C@@H]1c1c[nH]c2ccccc12` [Compound 10, (3R,4R)-3-((S)-6-hydroxy-5,6-dihydro-4H-pyrrolo[3,2,1-ij]quinolin-1-yl)-4-(1H-indol-3-yl)pyrrolidine-2,5-dione]: the GI50 in the data set with HT29 is 1500 ± 210 nM. For the same compound, the 50% inhibitory concentration (IC50) against c-Met stood at 2000 ± 210 nM.

For `O=C1NC(=O)[C@@H](c2cn3c4c(cccc24)CCC3=O)[C@@H]1c1c[nH]c2ccccc12` (racemic) [Compound 9, (3R,4R)-3-(1H-indol-3-yl)-4-(4-oxo-5,6-dihydro-4H-pyrrolo[3,2,1-ij]quinolin-1-yl)pyrrolidine-2,5-dione], in the data set with HT29, the GI50 is 3100 ± 240 nM. This compound had an IC50 against c-Met of 1000 nM. `O=C1NC(=O)[C@H](c2cn3c4c(cccc24)[C@H](O)CC3)[C@H]1c1c[nH]c2ccccc12` [Compound 12, (3S,4S)-3-((R)-6-hydroxy-5,6-dihydro-4H-pyrrolo[3,2,1-ij]quinolin-1-yl)-4-(1H-indol-3-yl)pyrrolidine-2,5-dione]: the GI50 with HT29 was 31000 ± 7100 nM. At c-Met, this compound had a half-inhibitory concentration (IC50) greater than 30000 nM. Consider `O=C1NC(=O)[C@@H](c2cn3c4c(cccc24)[C@H](O)CC3)[C@@H]1c1c[nH]c2ccccc12` [Compound 11, (3R,4R)-3-((R)-6-hydroxy-5,6-dihydro-4H-pyrrolo[3,2,1-ij]quinolin-1-yl)-4-(1H-indol-3-yl)pyrrolidine-2,5-dione], for which the GI50 in the data set with HT29 was determined as 3700 ± 420 nM. Further, on c-Met, the IC50 stood at 2600 ± 70 nM. In the case of `O=C1NC(=O)[C@@H](c2cn3c4c(cccc24)CCC3)[C@@H]1c1c[nH]c2cc(O)ccc12` (racemic) [Compound 1, (rac)-trans-3-(5,6-dihydro-4H-pyrrolo[3,2,1-ij]quinolin-1-yl)-4-(6-hydroxy-1H-indol-3-yl)pyrrolidine-2,5-dione], the melting point was 167 to 170 °C. With `O=C1NC(=O)[C@H](c2cn3c4c(cccc24)[C@@H](O)CC3)[C@H]1c1c[nH]c2ccccc12` [Compound 13, (3S,4S)-3-((S)-6-hydroxy-5,6-dihydro-4H-pyrrolo[3,2,1-ij]quinolin-1-yl)-4-(1H-indol-3-yl)pyrrolidine-2,5-dione], in the data set on HT29, the GI50 came out at 75000 ± 33000 nM. On c-Met, the concentration for half-maximal inhibition (IC50) was greater than 30000 nM. As to `O=C1CCn2cc([C@@H]3C(=O)NC(=O)[C@H]3c3c[nH]c4ccccc34)c3cccc1c32` (racemic) [Compound 8, (3R,4R)-3-(1H-indol-3-yl)-4-(6-oxo-5,6-dihydro-4H-pyrrolo[3,2,1-ij]quinolin-1-yl)pyrrolidine-2,5-dione], the 50% growth inhibitory concentration (GI50) with HT29 was determined as 680 ± 50 nM. Moreover, at c-Met, the concentration for half-maximal inhibition (IC50) is 1600 ± 250 nM. Regarding `O=C1NC(=O)[C@@H](c2cn3c4c(cccc24)C(O)CC3)[C@@H]1c1c[nH]c2ccccc12` (mixture of isomers) [Compound 3, (rac)-trans-3-(6-hydroxy-5,6-dihydro-4H-pyrrolo[3,2,1-ij]quinolin-1-yl)-4-(1H-indol-3-yl)pyrrolidine-2,5-dione], the melting point fell in the range of 153 to 155 °C.
